PMC10413460 (ACS Omega, 2023)

Target: epidermal growth factor receptor tyrosine kinase (EGFR-TK) (Homo sapiens, UniProt P00533)
Assay: ADP-Glo kinase assay, cell-free
Assay type: biochemical

epidermal growth factor receptor tyrosine kinase (EGFR-TK), sequence (P00533 669-1210 limits assumed): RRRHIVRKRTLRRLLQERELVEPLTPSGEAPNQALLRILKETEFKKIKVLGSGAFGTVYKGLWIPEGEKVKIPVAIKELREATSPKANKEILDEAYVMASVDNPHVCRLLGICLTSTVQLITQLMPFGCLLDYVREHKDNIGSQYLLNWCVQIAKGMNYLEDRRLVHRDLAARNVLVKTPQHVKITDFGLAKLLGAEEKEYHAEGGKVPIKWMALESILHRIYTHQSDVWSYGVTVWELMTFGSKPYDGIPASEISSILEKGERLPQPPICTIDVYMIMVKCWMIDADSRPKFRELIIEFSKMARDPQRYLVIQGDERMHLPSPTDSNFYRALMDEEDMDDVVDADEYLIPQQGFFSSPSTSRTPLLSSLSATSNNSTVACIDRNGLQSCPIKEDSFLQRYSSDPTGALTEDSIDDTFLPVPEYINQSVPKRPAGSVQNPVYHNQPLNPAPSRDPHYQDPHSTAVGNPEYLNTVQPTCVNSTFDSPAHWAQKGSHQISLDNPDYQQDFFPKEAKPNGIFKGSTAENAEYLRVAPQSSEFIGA

## COC(=O)[C@@]12OC[C@]34[C@H]([C@@H](O)[C@@H]1O)[C@@]1(C)CC(=O)C(O)=C(C)[C@@H]1C[C@H]3OC(=O)[C@H](OC(=O)C=C(C)C)[C@@H]24 [brusatol]
  IC50: 333 nM
